The target in the experiment is T1, human GPR40 (Homo sapiens, UniProt O14842).
T1 construct: expressed in transfected cells; host or cells: CHO-K1
T1 sequence (O14842 whole entry): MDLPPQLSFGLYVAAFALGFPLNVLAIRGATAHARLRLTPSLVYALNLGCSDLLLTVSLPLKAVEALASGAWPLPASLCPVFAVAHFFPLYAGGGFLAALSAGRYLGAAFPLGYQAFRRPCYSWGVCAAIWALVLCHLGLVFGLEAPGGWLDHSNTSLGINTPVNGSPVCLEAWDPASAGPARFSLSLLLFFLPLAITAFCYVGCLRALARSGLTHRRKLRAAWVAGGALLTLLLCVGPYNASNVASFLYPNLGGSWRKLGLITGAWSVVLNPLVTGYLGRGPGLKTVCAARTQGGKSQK
Kind of experiment: Induction of Ca2+ (calcium flux assay) using human GPR40 expression cell line. The format is cell-based. The following applies: read-out: EC0.5. The method, boiled down:
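Read-out is intracellular Ca2+ flux on FlexStation after test compounds (DMSO stocks diluted 200-fold in assay buffer) were added to dye-loaded human GPR40/CHO-K1 cells. Cells had been cultured 24 h, then incubated 1 h at 37° C with Calcium 5 dye, HBSS-HEPES pH 7.4; EC0.5 from concentration plot.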
On the technique in general: Calcium assays in cells follow changes in intracellular calcium, usually with a dye or a luminescent sensor.
Consider `CC#C[C@@H](CC(=O)O)c1ccc(OCc2ccc3c(C)n(CC(C)C)nc3c2)cc1` [Example 179, (S)-3-[4-(2-isobutyl-3-methyl-2H-indazol-6-ylmethoxy)-phenyl]-hex-4-ynoic acid], for which the EC50 is 1 to 50 nM.

With `CC#C[C@@H](CC(=O)O)c1ccc(OCc2ccc3cnn(Cc4ccncn4)c3c2)cc1` [Example 75, (S)-3-[4-(1-pyrimidin-4-ylmethyl-1H-indazol-6-ylmethoxy)-phenyl]-hex-4-ynoic acid], the EC50 was 50 to 500 nM.

For the compound `CC#C[C@@H](CC(=O)O)c1ccc(OCc2ccc3c(COC)nn(CC(C)C)c3c2)cc1` [Example 188, (S)-3-[4-(1-isobutyl-3-methoxymethyl-1H-indazol-6-ylmethoxy)-phenyl]-hex-4-ynoic acid], the EC50 is 5 nM.

As to `CC#C[C@@H](CC(=O)O)c1ccc(OCc2c(F)cc3ccn(Cc4ccccc4)c3c2C)cc1` [Example 49, (S)-3-[4-(1-benzyl-5-fluoro-7-methyl-1H-indol-6-ylmethoxy)-phenyl]-hex-4-ynoic acid], the EC50 was 50 to 500 nM.

As for `CC#C[C@@H](CC(=O)O)c1ccc(OCc2ccc3ccn(Cc4ccncn4)c3c2C)cc1` [Example 61, (S)-3-[4-(7-methyl-1-pyrimidin-4-ylmethyl-1H-indol-6-ylmethoxy)-phenyl]-hex-4-ynoic acid], the EC50 was in the range of 1 to 50 nM.

Consider `Cc1c(COc2ccc(CCC(=O)O)c(F)c2)ccc2ccn(Cc3ccccc3)c12` [Example 55, 3-[4-(1-benzyl-7-methyl-1H-indol-6-ylmethoxy)-2-fluoro-phenyl]-propanoic acid], for which the EC50 was 1 to 50 nM.

On to `CC#C[C@@H](CC(=O)O)c1ccc(OCc2ccc3cn(Cc4cccnc4)nc3c2)cc1` [Example 80, (S)-3-[4-(2-pyridin-3-ylmethyl-2H-indazol-6-ylmethoxy)-phenyl]-hex-4-ynoic acid], for which the EC50 was at least 500 nM.

For `Cc1cc(F)ccc1-n1ccc2ccc(COc3ccc(CCC(=O)O)cc3)cc21` [Example 17, 3-{4-[1-(4-fluoro-2-methyl-phenyl)-1H-indol-6-ylmethoxy]-phenyl}-propanoic acid], the EC50 was determined as 7 nM.

As for `CC#C[C@@H](CC(=O)O)c1ccc(OCc2ccc3cn(Cc4ccncn4)nc3c2)cc1` [Example 76, (S)-3-[4-(2-pyrimidin-4-ylmethyl-2H-indazol-6-ylmethoxy]-phenyl}-hex-4-ynoic acid], the EC50 was at least 500 nM.

In the case of `CC#C[C@@H](CC(=O)O)c1ccc(OCc2ccc3c(cnn3CC3CCOC3)c2)cc1` (stereo partly drawn) [Example 153, (S)-3-{4-[1-(tetrahydrofuran-3-ylmethyl)-1H-indazol-5-ylmethoxy]-phenyl}-hex-4-ynoic acid], the EC50 lay within 1 to 50 nM.

In the case of `CC#C[C@@H](CC(=O)O)c1ccc(OCc2ccc3c(CN4CCC(F)(F)C4)cn(CC(C)C)c3n2)cc1` [Example 231, (S)-3-{4-[3-(3,3-difluoro-pyrrolidin-1-ylmethyl)-1-isobutyl-1H-pyrrolo[2,3-b]pyridin-6-ylmethoxy]-phenyl}-hex-4-ynoic acid], the EC50 is 1 to 50 nM.

`CC#C[C@@H](CC(=O)O)c1ccc(OCc2cc3c(ccn3Cc3ccccc3)cc2F)cc1` [Example 41, (S)-3-[4-(1-benzyl-5-fluoro-1H-indol-6-ylmethoxy)-phenyl]-hex-4-ynoic acid]: the EC50 fell in the range of 1 to 50 nM.

Consider `CC(C)n1ncc2ccc(COc3ccc4c(c3)OCC4CC(=O)O)cc21` (stereo not drawn) [Example 100, [6-(1-isopropyl-1H-indazol-6-ylmethoxy)-2,3-dihydro-benzofuran-3-yl]-acetic acid], for which the EC50 is 600 nM.

As for `CC#C[C@@H](CC(=O)O)c1ccc(OCc2cccc3c2c(F)nn3CC(C)C)cc1` [Example 189, (S)-3-[4-(3-fluoro-1-isobutyl-1H-indazol-4-ylmethoxy)-phenyl]-hex-4-ynoic acid], the EC50 was in the range of 1 to 50 nM.

Turning to `CC#C[C@@H](CC(=O)O)c1ccc(OCc2ccc3c(cnn3CC3CC3)c2)cc1` [Example 165, (S)-3-[4-(1-cyclopropylmethyl-1H-indazol-5-ylmethoxy)-phenyl]-hex-4-ynoic acid], the EC50 was 1 to 50 nM.

The values are drawn from patent US9988379B2, “GPR40 receptor agonist, methods of preparing the same, and pharmaceutical compositions containing the same as an active agent” (LG CHEM, LTD., priority 2012, dated 2018).
